Source: patent US10131652B2, “Pyrimidinyloxy benzene derivatives as herbicides” (E. I. DU PONT DE NEMOURS AND COMPANY, priority 2014, dated 2018)
Read-outs that look alike come from different tables or passages of the source.

Assays:
Experiment in all cases: Test E pre-/postemergence plant response
Type in all cases: in vivo
[1] = system: chickweed (common chickweed, Stellaria media); settings: scale 0 to 100, read-out: Plant response rating, Chickweed; for pest or weed control at 16 g/ha: 16 g ai/ha; for pest or weed control at 31 g/ha: 31 g ai/ha; for pest or weed control at 62 g/ha: 62 g ai/ha; for pest or weed control at 125 g/ha: 125 g ai/ha
Procedure, shortened: (§1)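 Pre-emergence: seeds sown in silt loam soil and sprayed with test chemicals in a non-phytotoxic solvent/surfactant mix. Post-emergence: plants at 2–18 cm (1- to 4-leaf stage) in peat/vermiculite medium treated with the same formulation. Visual rating versus controls after 7–21 days, 0 (no effect) to 100 (complete control).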

[2] = system: canarygrass (Phalaris minor); settings: scale 0 to 100, read-out: Plant response rating, Canarygrass; for pest or weed control at 16 g/ha: 16 g ai/ha; for pest or weed control at 31 g/ha: 31 g ai/ha; for pest or weed control at 62 g/ha: 62 g ai/ha; for pest or weed control at 125 g/ha: 125 g ai/ha
Procedure, shortened: as §1

[3] = system: field poppy (Papaver rhoeas); settings: scale 0 to 100, read-out: Plant response rating, Field Poppy; for pest or weed control at 16 g/ha: 16 g ai/ha; for pest or weed control at 31 g/ha: 31 g ai/ha; for pest or weed control at 62 g/ha: 62 g ai/ha; for pest or weed control at 125 g/ha: 125 g ai/ha
Procedure, shortened: as §1

[4] = system: spring barley (Hordeum vulgare); settings: for plant injury at 16 g/ha: 16 g ai/ha; for plant injury at 31 g/ha: 31 g ai/ha; for plant injury at 62 g/ha: 62 g ai/ha; for plant injury at 125 g/ha: 125 g ai/ha
Procedure, shortened: as §1

[5] = system: pigweed (Amaranthus retroflexus); settings: scale 0 to 100, read-out: Plant response rating, Pigweed; for pest or weed control at 16 g/ha: 16 g ai/ha; for pest or weed control at 31 g/ha: 31 g ai/ha; for pest or weed control at 62 g/ha: 62 g ai/ha; for pest or weed control at 125 g/ha: 125 g ai/ha
Procedure, shortened: as §1

[6] = system: windgrass (Apera spica-venti); settings: scale 0 to 100, read-out: Plant response rating, Windgrass; for pest or weed control at 16 g/ha: 16 g ai/ha; for pest or weed control at 62 g/ha: 62 g ai/ha; for pest or weed control at 125 g/ha: 125 g ai/ha
Procedure, shortened: as §1

[7] = system: wild buckwheat (Polygonum convolvulus); settings: Fallopia convolvulus, scale 0 to 100, read-out: Plant response rating, Buckwheat, Wild; for pest or weed control at 16 g/ha: 16 g ai/ha; for pest or weed control at 31 g/ha: 31 g ai/ha; for pest or weed control at 62 g/ha: 62 g ai/ha; for pest or weed control at 125 g/ha: 125 g ai/ha
Procedure, shortened: as §1

[8] = system: winter barley (Hordeum vulgare); settings: scale 0 to 100, read-out: Plant response rating, Barley, Winter; for plant injury at 16 g/ha: 16 g ai/ha; for plant injury at 31 g/ha: 31 g ai/ha; for plant injury at 62 g/ha: 62 g ai/ha; for plant injury at 125 g/ha: 125 g ai/ha
Procedure, shortened: as §1

[9] = system: speedwell (bird's-eye speedwell, Veronica persica); settings: scale 0 to 100, read-out: Plant response rating, Speedwell; for pest or weed control at 16 g/ha: 16 g ai/ha; for pest or weed control at 62 g/ha: 62 g ai/ha; for pest or weed control at 125 g/ha: 125 g ai/ha
Procedure, shortened: as §1

[10] = system: downy bromegrass (Bromus tectorum); settings: scale 0 to 100, read-out: Plant response rating, Bromegrass, Downy; for pest or weed control at 16 g/ha: 16 g ai/ha; for pest or weed control at 31 g/ha: 31 g ai/ha; for pest or weed control at 62 g/ha: 62 g ai/ha; for pest or weed control at 125 g/ha: 125 g ai/ha
Procedure, shortened: as §1

kochia (Kochia scoparia) = settings: Bassia scoparia, scale 0 to 100, read-out: Plant response rating, Kochia; for pest or weed control at 16 g/ha: 16 g ai/ha; for pest or weed control at 31 g/ha: 31 g ai/ha; for pest or weed control at 62 g/ha: 62 g ai/ha; for pest or weed control at 125 g/ha: 125 g ai/ha
Procedure, shortened: as §1

[11] = post-emergence, Postemergence, scale 0 to 100, read-out: Plant response rating, Barley, Spring
[12] = pre-emergence, Preemergence, scale 0 to 100, read-out: Plant response rating, Barley, Spring
[13] = post-emergence, 31 g ai/ha, Postemergence

## FC(F)c1cc(-c2ccccc2Oc2ncc(Cl)cn2)on1 [Compound 53, 5-chloro-2-[2-[3-(difluoromethyl)-5-isoxazolyl]phenoxy]pyrimidine]
[1]; post-emergence, Postemergence
  pest or weed control at 16 g/ha: 30%
  pest or weed control at 31 g/ha: 50%
  pest or weed control at 62 g/ha: 60%
  pest or weed control at 125 g/ha: 65%
[1]; pre-emergence, Preemergence
  pest or weed control at 16 g/ha: 100%
  pest or weed control at 31 g/ha: 100%
  pest or weed control at 62 g/ha: 100%
  pest or weed control at 125 g/ha: 100%
[2]; post-emergence, Postemergence
  pest or weed control at 16 g/ha: 5%
  pest or weed control at 31 g/ha: 10%
  pest or weed control at 62 g/ha: 25%
  pest or weed control at 125 g/ha: 40%
[2]; pre-emergence, Preemergence
  pest or weed control at 16 g/ha: 10%
  pest or weed control at 31 g/ha: 20%
  pest or weed control at 62 g/ha: 65%
  pest or weed control at 125 g/ha: 95%
[3]; post-emergence, Postemergence
  pest or weed control at 16 g/ha: 60%
  pest or weed control at 31 g/ha: 65%
  pest or weed control at 62 g/ha: 80%
  pest or weed control at 125 g/ha: 80%
[3]; pre-emergence, Preemergence
  pest or weed control at 16 g/ha: 100%
  pest or weed control at 31 g/ha: 100%
  pest or weed control at 62 g/ha: 100%
  pest or weed control at 125 g/ha: 100%
[4]; [11]
  plant injury at 16 g/ha: 5%
  plant injury at 31 g/ha: 5%
  plant injury at 62 g/ha: 10%
[4]; post-emergence, Postemergence, scale 0 to 100 (0 no effect, 100 complete control), read-out: Plant response rating, Barley, Spring
  plant injury at 125 g/ha: 10%
[4]; [12]
  plant injury at 16 g/ha: 35%
  plant injury at 31 g/ha: 35%
  plant injury at 62 g/ha: 35%
  plant injury at 125 g/ha: 35%
[5]; post-emergence, Postemergence
  pest or weed control at 16 g/ha: 85%
  pest or weed control at 31 g/ha: 85%
  pest or weed control at 62 g/ha: 90%
  pest or weed control at 125 g/ha: 90%
[5]; pre-emergence, Preemergence
  pest or weed control at 16 g/ha: 30%
  pest or weed control at 31 g/ha: 20%
  pest or weed control at 62 g/ha: 100%
  pest or weed control at 125 g/ha: 100%
[6]; post-emergence, Postemergence
  pest or weed control at 16 g/ha: 5%
  pest or weed control at 62 g/ha: 10%
  pest or weed control at 125 g/ha: 20%
[6]; [13]
  pest or weed control at 31 g/ha: 5%
[6]; pre-emergence, Preemergence
  pest or weed control at 16 g/ha: 0%
  pest or weed control at 62 g/ha: 35%
  pest or weed control at 125 g/ha: 50%
[7]; post-emergence, Postemergence
  pest or weed control at 16 g/ha: 70%
  pest or weed control at 31 g/ha: 65%
  pest or weed control at 62 g/ha: 90%
  pest or weed control at 125 g/ha: 95%
[7]; pre-emergence, Preemergence
  pest or weed control at 16 g/ha: 65%
  pest or weed control at 31 g/ha: 100%
  pest or weed control at 62 g/ha: 100%
  pest or weed control at 125 g/ha: 100%
[8]; post-emergence, Postemergence
  plant injury at 16 g/ha: 5%
  plant injury at 31 g/ha: 5%
  plant injury at 62 g/ha: 5%
  plant injury at 125 g/ha: 10%
[8]; pre-emergence, Preemergence
  plant injury at 16 g/ha: 15%
  plant injury at 31 g/ha: 10%
  plant injury at 62 g/ha: 30%
  plant injury at 125 g/ha: 25%
[9]; post-emergence, Postemergence
  pest or weed control at 16 g/ha: 60%
  pest or weed control at 62 g/ha: 95%
  pest or weed control at 125 g/ha: 100%
[9]; [13]
  pest or weed control at 31 g/ha: 60%
[9]; pre-emergence, Preemergence
  pest or weed control at 16 g/ha: 100%
  pest or weed control at 62 g/ha: 100%
  pest or weed control at 125 g/ha: 100%
[10]; post-emergence, Postemergence
  pest or weed control at 16 g/ha: 0%
  pest or weed control at 31 g/ha: 0%
  pest or weed control at 62 g/ha: 5%
  pest or weed control at 125 g/ha: 5%
[10]; pre-emergence, Preemergence
  pest or weed control at 16 g/ha: 0%
  pest or weed control at 31 g/ha: 15%
  pest or weed control at 62 g/ha: 15%
  pest or weed control at 125 g/ha: 15%
Kochia (Kochia scoparia); post-emergence, Postemergence
  pest or weed control at 16 g/ha: 50%
  pest or weed control at 31 g/ha: 55%
  pest or weed control at 62 g/ha: 70%
  pest or weed control at 125 g/ha: 80%
Kochia (Kochia scoparia); pre-emergence, Preemergence
  pest or weed control at 16 g/ha: 10%
  pest or weed control at 31 g/ha: 15%
  pest or weed control at 62 g/ha: 55%
  pest or weed control at 125 g/ha: 100%
